In experiment [1] the test system is Mus musculus. The experiment in a line: Compound was tested for inhibitory activity against P388 leukemia in mice at 400 mg/kg. In kind it is functional, organism-based. Also noted: dose 400 mg/kg.
The nature of experiment [2]: In vitro inhibitory activity against growth of KB cells. In kind it is functional, Homo sapiens. To be noted: for IC50: Homo sapiens, KB, read-out: ID50 (the source's name).
The test system of experiment [3] is Mus musculus. The experiment in a line: In vivo antitumor activity against leukemia P388 in mice after intraperitoneal administration at a dose of 200 mg/kg once a day for 1 and 5 days. The experiment is classed as functional.
Experiment [4] concerns Mus musculus. The experiment in a line: In vivo antitumor activity against leukemia P388 in mice after intraperitoneal administration at a dose of 400 mg/kg once a day for 1 and 5 days. The experiment is classed as functional.
In experiment [5] the test system is Mus musculus. Put plainly: In vivo antitumor activity against leukemia P388 in mice after intraperitoneal administration at a dose of 100 mg/kg once a day for 1 and 5 days. The experiment is classed as functional.
Experiment [6] relates to Mus musculus. Put plainly: In vivo antitumor activity against leukemia P388 in mice after intraperitoneal administration once a day for 1 and 5 days. The experiment is classed as functional.
Experiment [7] has as its system Mus musculus. The experiment in a line: In vivo antitumor activity against leukemia P388 in mice after intraperitoneal administration of the compound at a dose of 200 mg/kg once a day for 1 and 5 days. In kind it is functional.
For experiment [8], the system named is Mus musculus. Put plainly: In vivo antitumor activity against leukemia P388 in mice after intraperitoneal administration at a dose of 25 mg/kg once a day for 1 and 5 days. The experiment is classed as functional.
Experiment [9] has as its system Mus musculus. Put plainly: In vivo antitumor activity against leukemia P388 in mice after intraperitoneal administration at a dose of 12.5 mg/kg once a day for 1 and 5 days. In kind it is functional.
For experiment [10], the system named is Mus musculus. The experiment in a line: In vivo antitumor activity against leukemia P388 in mice after intraperitoneal administration at a dose of 50 mg/kg once a day for 1 and 5 days. The experiment is classed as functional.

SMILES strings stand for the structures. Values after ≈ are worked out from the molar mass of the structure shown. Values joined by “and” are separate entries in the source; they are usually repeats but may differ in a detail not shown here. Equal entries are not always repeated. Active and inactive are the calls of the source. No cut-off for these calls is given here.

Take `O=C1c2ccccc2CCC1C1OCCc2ccccc21` (stereo unspecified): the result in the experiment on Mus musculus [1] was inactive. Also, in [2], the ID50 came out at 151 µM and the IC50 amounted to 42 µg/mL (≈ 151 µM).
The like results for `COC(=O)c1ccc(O)c(C2OCCc3ccccc32)c1` (stereo unspecified) were, in that order, “inactive”, 352 µM and above 100 µg/mL.
In the same order, the values of `Oc1ncc(C2OCCc3ccccc32)c(O)n1` (stereo unspecified) are “inactive”, 410 µM and above 100 µg/mL.
The like results for `Oc1ccc(C2OCCc3ccccc32)cc1` (stereo unspecified) were, in that order, “inactive”, 119 µM and 27 µg/mL (≈ 119 µM).
On to `Oc1ccccc1C1OCCc2ccccc21` (stereo unspecified), for which, in the experiment on Mus musculus [1], the result was inactive. In addition, in experiment [2], the ID50 is 90 µM and the IC50 stood at 20.5 µg/mL (≈ 90.6 µM).
In the same order, the values of `CC1(C)CC(=O)C(C2OCCc3ccccc32)=C(O)C1` (stereo unspecified) are “inactive”, 368 µM and above 100 µg/mL.
In the case of `COc1ccc(C(NC(=O)c2ccccc2)c2ccc(C(C)C)cc(=O)c2O)cc1` (stereo unspecified), the T/C with Mus musculus [3] came out at 110%; in the experiment with Mus musculus [4] it was 131%; with Mus musculus [5] it was 104%. For the same molecule, in experiment [2], the ID50 came to 4.2 µM. Also, in experiment [2], the IC50 is 1.7 µg/mL (≈ 4.21 µM).
Consider `O=C(c1ccccc1)C(c1ccccc1)C1OCCc2ccccc21` (stereo unspecified), for which, in the experiment with Mus musculus [1], the result was inactive. Further, in [2], the ID50 amounted to 305 µM and the IC50 was above 100 µg/mL.
Consider `CC(=O)C1=C(O)CN(C2OCCc3ccccc32)C1=O` (stereo unspecified), for which the outcome in the experiment on Mus musculus [1] was inactive. In [2], the ID50 was 366 µM and the IC50 was above 100 µg/mL.
In the case of `Cc1cc(O)c(C(C)C)cc1C(c1ccccc1)c1cc(C(C)C)c(O)cc1C`, the T/C in the experiment on Mus musculus [6] was 102% and 100% and 87%. Moreover, in experiment [2], the ID50 was 34 µM and the IC50 was found to be 13 µg/mL (≈ 33.5 µM).
Take `COc1ccc(C(c2ccc(C(C)C)cc(=O)c2O)n2c(=S)oc3ccccc32)cc1` (stereo unspecified): the T/C turned out to be 133% in the experiment on Mus musculus [4], 113% in the experiment on Mus musculus [5] and 105% in the experiment on Mus musculus [7]. The ID50 in experiment [2] was determined as 8.5 µM. The IC50 in experiment [2] turned out to be 3.7 µg/mL (≈ 8.53 µM).
In the case of `CC(C)c1ccc(C(Sc2ccccc2)c2ccccc2)c(O)c(=O)c1` (stereo unspecified), the T/C in the experiment on Mus musculus [3] stood at 135%; in the experiment on Mus musculus [4], 113%; with Mus musculus [5], 108%. In experiment [2], this molecule gave an ID50 of 1.4 µM. In [2], the IC50 is 0.5 µg/mL (≈ 1.38 µM).
`O=C1c2ccccc2CC1C1OCCc2ccccc21` (stereo unspecified): the result in the experiment with Mus musculus [1] was inactive. Also, in experiment [2], the ID50 stood at 144 µM and the IC50 stood at 38 µg/mL (≈ 144 µM).
As to `CCOC(c1ccccc1)c1ccc(C(C)C)cc(=O)c1O` (stereo unspecified), the T/C in the experiment with Mus musculus [6] turned out to be 96%; in the experiment on Mus musculus [8] it was 97%.
In the case of `O=c1oc2ccccc2c(O)c1C1OCCc2ccccc21` (stereo unspecified), in the experiment with Mus musculus [1], the outcome was inactive. In addition, in experiment [2], the ID50 stood at 340 µM and the IC50 came out at 100 µg/mL (≈ 340 µM).
As to `CCOC(c1ccc(OC)cc1)c1ccc(C(C)C)cc(=O)c1O` (stereo unspecified), the T/C with Mus musculus [9] was determined as 96%; with Mus musculus [8], 109%; with Mus musculus [10] it was 119%. Besides, in experiment [2], the IC50 was determined as 0.5 µg/mL (≈ 1.52 µM).
Turning to `COc1ccc(C(NC(C)=O)c2ccc(C(C)C)cc(=O)c2O)cc1` (stereo unspecified), the T/C turned out to be 92% with Mus musculus [3], 108% in the experiment with Mus musculus [4] and 92% with Mus musculus [5]. In addition, in experiment [2], the ID50 worked out at 18 µM. Moreover, the IC50 in experiment [2] amounted to 6 µg/mL (≈ 17.6 µM).
Regarding `S=c1oc2ccc(Cl)cc2n1C1OCCc2ccccc21` (stereo unspecified), the outcome in the experiment on Mus musculus [1] was inactive. Besides, in experiment [2], the ID50 was 268 µM and the IC50 is 85 µg/mL (≈ 267 µM).
Regarding `S=c1oc2ccc(Cl)cc2n1CC1OCCc2ccccc21` (stereo unspecified), the outcome with Mus musculus [1] was inactive. In [2], the ID50 was found to be 28 µM and the IC50 came out at 8.9 µg/mL (≈ 26.8 µM).
With `Clc1ccc2oc(SCC3OCCc4ccccc43)nc2c1` (stereo unspecified), the result in the experiment on Mus musculus [1] was inactive. For the same molecule, in [2], the ID50 worked out at 18 µM and the IC50 turned out to be 6.1 µg/mL (≈ 18.4 µM).
In the same order, the values of `Cc1cc(O)c(C(C)C)cc1C1OCCc2ccccc21` (stereo unspecified) are “inactive”, 57 µM and 16 µg/mL (≈ 56.7 µM).
On to `COc1ccc(C(c2oc(CO)cc(=O)c2O)c2oc(CO)cc(=O)c2O)cc1`, for which the T/C is 102% in the experiment with Mus musculus [3], 98% in the experiment with Mus musculus [5] and 102% in the experiment on Mus musculus [10]. Besides, the ID50 in experiment [2] worked out at 249 µM. Moreover, the IC50 in experiment [2] worked out at 100 µg/mL (≈ 249 µM).

One may read the T/C as the ratio of treated to control.

These data come from ChEMBL document CHEMBL1122911, “Synthesis and antitumor activity of tropolone derivatives. 2” (1985).
